Assay [1] deals with full length recombinant Pim-2 (Homo sapiens (Human), UniProt Q9P1W9). Description: Pim enzyme assay (HTRF, phosphorylation of biotinylated-BAD (S112) peptide), Pim-2. Format: biochemical. To be noted: read-out: Pim2_IC50. Background: TR-FRET usually uses a lanthanide donor and a delayed reading to cut background.
For assay [2], the target named is full length recombinant Pim-1 (Homo sapiens (Human), UniProt P11309). Put plainly: Pim enzyme assay (HTRF, phosphorylation of biotinylated-BAD (S112) peptide), Pim-1. Format: biochemical.
The test system of the next assay is KMS-12-BM myeloma cells. Description: Pim cell assay KMS12 (phospho-BAD and total BAD). In kind it is cell-based. To be noted: Homo sapiens, 2 h. On the procedure:
The assay for determination of the antiproliferative activity of multiple Pim inhibitors in the KMS-12-BM myeloma cells measures levels of phospho-BAD and total BAD. It was conducted as follows: […] The cells were then incubated overnight at 37° C., 5% CO2. […] This dilution in DMSO was then diluted again into cell growth medium. […] The cell plates were then incubated with compound for 2 hours at 37° C., 5% CO2. After a two h incubation, the compound-containing medium was removed. […] The cell plates containing lysis buffer were then immediately stored at -70° C. These prepared lysates were then assayed for phospho and total BAD according to the manufacturer's protocols (Meso Scale Diagnostics, Cat#[…]-3 & #[…]-3). The plates were read on the MSD Sector Imager 6000, and results were calculated according to the assay protocols ((% Phosphoprotein=((2×Phospho signal)/(Phospho signal+Total signal))×100)).

Assay [3] has as its system Pim-1 stably transfected U2OS human osteogenic sarcoma line. Put plainly: Pim cell assay U2OS (phospho-BAD normalized against total BAD), Pim-1 transfected. In kind it is cell-based. To be noted: Homo sapiens, U2OS.
Assay [4] addresses full length recombinant Pim-3 (Homo sapiens (Human), UniProt Q86V86). Put plainly: Pim enzyme assay (HTRF, phosphorylation of biotinylated-BAD (S112) peptide), Pim-3. To be noted: Pim-3 enzyme assay; read-out: Pim3 IC50. Format: biochemical. An outline of the steps:
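IC50 values were fitted with a 4-parameter logistic model to percent-of-control HTRF signal (Eu anti-phospho-BAD S112 antibody/streptavidin-APC). Reactions used full-length Pim-3 and biotin-BAD (S112) peptide, ran 1 h 30 min at RT (22 °C) in Hepes pH 7.0 buffer with BSA and DTT, and were stopped by 3 mM EDTA.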

In assay [5] the test system is Pim-2 stably transfected U2OS human osteogenic sarcoma line. Description: Pim cell assay U2OS (phospho-BAD normalized against total BAD), Pim-2 transfected. Format: cell-based. To be noted: Homo sapiens; U2OS cells, Pim-2 transfected; read-out: U2OS Pim2_Cell_IC50.
[6] abbreviates: HTRF, 10-point curve, high dose 1 uM, 45 min at RT.
Where [7] appears, read: HTRF, 10-point curve, high dose 1 uM, 2 h at RT, read-out: Pim_1_IC50.
Where [8] appears, read: read-out: U2OS Pim1_Cell_IC50, U2OS cells, Pim-1 transfected.
Setting [9] is: Pim-1 enzyme assay, read-out: Pim_1_IC50.

Read-outs that look alike come from different tables or passages of the source. A value given as a limit tells only on which side of the number the result lay.

Sequence of full length recombinant Pim-2 (Q9P1W9 whole entry): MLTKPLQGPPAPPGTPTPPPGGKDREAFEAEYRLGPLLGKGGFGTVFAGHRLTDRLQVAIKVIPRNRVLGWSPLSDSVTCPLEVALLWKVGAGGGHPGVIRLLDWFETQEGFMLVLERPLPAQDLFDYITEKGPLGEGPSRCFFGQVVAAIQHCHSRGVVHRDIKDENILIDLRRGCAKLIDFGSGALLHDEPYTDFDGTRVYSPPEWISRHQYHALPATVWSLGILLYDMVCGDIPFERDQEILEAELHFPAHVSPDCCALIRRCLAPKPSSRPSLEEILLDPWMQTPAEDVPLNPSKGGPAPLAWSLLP
Sequence of full length recombinant Pim-1 (P11309 whole entry): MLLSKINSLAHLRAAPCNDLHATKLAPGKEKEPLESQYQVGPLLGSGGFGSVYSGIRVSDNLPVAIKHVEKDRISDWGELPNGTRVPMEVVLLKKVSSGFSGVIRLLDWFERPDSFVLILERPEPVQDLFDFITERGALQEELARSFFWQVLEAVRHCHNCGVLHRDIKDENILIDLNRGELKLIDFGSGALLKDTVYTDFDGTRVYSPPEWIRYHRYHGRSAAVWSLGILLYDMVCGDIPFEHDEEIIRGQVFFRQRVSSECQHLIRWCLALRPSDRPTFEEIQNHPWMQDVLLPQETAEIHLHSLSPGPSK

For `CC(C)Nc1nnc(-c2ccc3[nH]cc(-c4ncc(C(N)=O)c(C5CC5)n4)c3c2)o1` [Example 281, 4-cyclopropyl-2-(5-(5-((1-methylethyl)amino)-1,3,4-oxadiazol-2-yl)-1H-indol-3-yl)-5-pyrimidinecarboxamide], the IC50 in assay [1] (setting [6]) was 2.15 nM; in assay [2] (setting [7]) it was 1.19 nM; in the assay on KMS-12-BM myeloma cells (read-out: KMS12_IC50) it was 1.28 µM.
In the case of `CC(C)Nc1nccc(-c2c[nH]c3ccc(-c4nnc(NC(C)C)o4)cc23)n1` [Example 287, N-isopropyl-5-(3-(2-(isopropylamino)pyrimidin-4-yl)-1H-indol-5-yl)-1,3,4-oxadiazol-2-amine], the IC50 stood at 11.1 nM in assay [1], 4.15 nM in assay [2] (setting [7]) and 1.56 µM in the assay with KMS-12-BM myeloma cells (read-out: KMS12_IC50 (uM)).
On to `CC(C)Nc1nnc(-c2cc3c(-c4cncc(C5CC5)n4)c[nH]c3cc2F)o1` [Example 280, 5-(3-(6-cyclopropyl-2-pyrazinyl)-6-fluoro-1H-indol-5-yl)-N-(1-methylethyl)-1,3,4-oxadiazol], for which the IC50 in assay [1] (setting [6]) worked out at 8.04 nM; in assay [2] it was 4.71 nM; with KMS-12-BM myeloma cells (read-out: KMS12_IC50), 3.83 µM.
Consider `CC(C)Nc1nnc(-c2ccc3[nH]cc(-c4cc(=O)[nH]c(C5CC5)n4)c3c2)o1` [Example 300, 2-cyclopropyl-6-(5-(5-((1-methylethyl)amino)-1,3,4-oxadiazol-2-yl)-1H-indol-3-yl)-4(3H)-pyrimidinone], for which the IC50 was found to be 2.24 nM in assay [1] (setting [6]), 1.2 nM in assay [2] (setting [7]) and 1.44 µM with KMS-12-BM myeloma cells (read-out: KMS12_IC50).
As for `CC(C)Nc1nnc(-c2ccc3[nH]cc(-c4ccnc(C5CC5)n4)c3c2)o1` [Example 301, 5-(3-(2-cyclopropyl-4-pyrimidinyl)-1H-indol-5-yl)-N-(1-methylethyl)-1,3,4-oxadiazol-2-amine], the results for the IC50 (in assay [1] (setting [6]); in assay [2] (setting [7]); with KMS-12-BM myeloma cells (read-out: KMS12_IC50)) were 4.65 nM, 2.54 nM and 0.945 µM, respectively.
The like results for `CC(C)Nc1nnc(-c2ccc3[nH]cc(NC(=O)C4CC4)c3c2)o1` [Example 291, N-(5-(5-(isopropylamino)-1,3,4-oxadiazol-2-yl)-1H-indol-3-yl)cyclopropanecarboxamide] were, in that order, 25.6 nM, 53.1 nM and 1.44 µM.
Regarding `CC(C)Nc1nc(-c2c[nH]c3ccc(-c4nnc(NC(C)C)o4)cc23)cc(=O)[nH]1` [Example 288, 2-(isopropylamino)-6-(5-(5-(isopropylamino)-1,3,4-oxadiazol-2-yl)-1H-indol-3-yl)pyrimidin-4(3H)-one], the IC50 in assay [1] (setting [6]) turned out to be 14.3 nM; in assay [2] (setting [7]) it was 2.44 nM; in the assay on KMS-12-BM myeloma cells (read-out: KMS12_IC50), 4.2 µM.
Turning to `Nc1nnc(-c2ccc3[nH]cc(-c4cncc(N5CCCCC5)n4)c3c2)o1` [Example 89, 5-(3-(6-(1-piperidinyl)-2-pyrazinyl)-1H-indol-5-yl)-1,3,4-oxadiazol-2-amine], the IC50 in assay [1] (Pim-2 enzyme assay) worked out at 4.77 nM; in assay [3] (setting [8]), 59.9 nM; in assay [4], 1.83 nM; in assay [5], 692 nM; in assay [2] (setting [9]), 2.11 nM.
As for `c1cc2[nH]cc(-c3cncc(C4CC4)n3)c2cc1-c1nnc(NC2CC2)o1` [Example 49, N-cyclopropyl-5-(3-(6-cyclopropylpyrazin-2-yl)-1H-indol-5-yl)-1,3,4-oxadiazol-2-amine], the IC50 came out at 7.64 nM in assay [1] (Pim-2 enzyme assay); 83.4 nM in assay [3] (read-out: U2OS Pim1_Cell_IC50); 1.82 nM in assay [4]; 2680 nM in assay [5]; 3.43 nM in assay [2] (setting [9]).
`CSc1nnc(-c2ccc3[nH]cc(-c4cccc(N5CCOCC5)n4)c3c2)s1` [Example 243, 5-(5-(methylsulfanyl)-1,3,4-thiadiazol-2-yl)-3-(6-(4-morpholinyl)-2-pyridinyl)-1H-indole]: the IC50 in assay [1] (Pim-2 enzyme assay) is 2820 nM; in assay [3] (setting [8]), 6330 nM; in assay [4] it was 85.2 nM; in assay [5] it was over 31600 nM; in assay [2] (setting [9]) it was 223 nM.
For `CNc1nnc(-c2ccc3[nH]cc(-c4cccc(N5CCOCC5)n4)c3c2)s1` [Example 214, N-methyl-5-(3-(6-(4-morpholinyl)-2-pyridinyl)-1H-indol-5-yl)-1,3,4-thiadiazol-2-amine], the IC50 amounted to 91.9 nM in assay [1] (Pim-2 enzyme assay); 587 nM in assay [3] (setting [8]); 10.1 nM in assay [4]; 15200 nM in assay [5]; 25.7 nM in assay [2] (setting [9]).
Consider `Nc1nnc(-c2ccc3[nH]cc(-c4cncc(N5CCCCC5)n4)c3c2)s1` [Example 198, 5-(3-(6-(1-piperidinyl)-2-pyrazinyl)-1H-indol-5-yl)-1,3,4-thiadiazol-2-amine], for which the IC50 came out at 10.9 nM in assay [1] (Pim-2 enzyme assay); 36.9 nM in assay [3] (setting [8]); 2.79 nM in assay [4]; 1720 nM in assay [5]; 2.51 nM in assay [2] (setting [9]).
In the case of `CS(=O)(=O)c1nnc(-c2ccc3[nH]cc(-c4cccc(N5CCOCC5)n4)c3c2)s1` [Example 215, 5-(5-(methylsulfonyl)-1,3,4-thiadiazol-2-yl)-3-(6-(4-morpholinyl)-2-pyridinyl)-1H-indole], the IC50 in assay [1] (Pim-2 enzyme assay) is 8780 nM; in assay [3] (read-out: U2OS Pim1_Cell_IC50), over 31600 nM; in assay [4] it was 168 nM; in assay [5] it was over 31600 nM; in assay [2] (setting [9]), 208 nM.
Regarding `CCOc1cncc(-c2c[nH]c3ccc(-c4nnc(N)s4)cc23)n1` [Example 19, 5-(3-(6-ethoxypyrazin-2-yl)-1H-indol-5-yl)-1,3,4-thiadiazol-2-amine], the IC50 in assay [1] (Pim-2 enzyme assay) worked out at 27.8 nM; in assay [3] (setting [8]) it was 205 nM; in assay [4] it was 7.8 nM; in assay [5], 2750 nM; in assay [2] (setting [9]), 19.7 nM.
`C[C@H]1COCCN1c1ccnc(-c2c[nH]c3ccc(-c4nnc(N)o4)cc23)n1` [Example 91, 5-(3-(4-((3S)-3-methyl-4-morpholinyl)-2-pyrimidinyl)-1H-indol-5-yl)-1,3,4-oxadiazol-2-amine]: the IC50 was 1.07 nM in assay [1] (Pim-2 enzyme assay); 221 nM in assay [3] (read-out: U2OS Pim1_Cell_IC50); 2.21 nM in assay [4]; 1050 nM in assay [5]; 1.96 nM in assay [2] (setting [9]).
For `CC(C)Oc1cccc(-c2c[nH]c3ccc(-c4nnco4)cc23)n1` [Example 244, 3-(6-(1-methylethoxy)-2-pyridinyl)-5-(1,3,4-oxadiazol-2-yl)-1H-indole], the IC50 in assay [1] (Pim-2 enzyme assay) is 85.4 nM; in assay [3] (read-out: U2OS Pim1_Cell_IC50), 310 nM; in assay [4], 15.1 nM; in assay [5], 12200 nM; in assay [2] (setting [9]) it was 24.8 nM.
The like results for `CCOc1cccc(-c2c[nH]c3ccc(-c4nnc(N)s4)cc23)n1` [Example 164, 5-(3-(6-ethoxy-2-pyridinyl)-1H-indol-5-yl)-1,3,4-thiadiazol-2-amine] were, in that order, 21.6 nM, 141 nM, 3.25 nM, 3730 nM and 14.7 nM.
In the same order, the values of `Nc1nnc(-c2ccc3[nH]cc(-c4cncc(-c5cccc(F)c5)n4)c3c2)o1` [Example 119, 5-(3-(6-(3-fluorophenyl)-2-pyrazinyl)-1H-indol-5-yl)-1,3,4-oxadiazol-2-amine] are 10.7 nM, 85 nM, 2.15 nM, over 31600 nM and 6.07 nM.
For the compound `CC1(C)CNc2ncc(-c3c[nH]c4ccc(-c5nnc(N)s5)cc34)nc21` [Example 201, 5-(3-(7,7-dimethyl-6,7-dihydro-5H-pyrrolo[2,3-b]pyrazin-2-yl)-1H-indol-5-yl)-1,3,4-thiadiazol-2-amine], the IC50 was 32.4 nM in assay [1] (Pim-2 enzyme assay); 387 nM in assay [3] (read-out: U2OS Pim1_Cell_IC50); 4.93 nM in assay [4]; 3830 nM in assay [5]; 17.9 nM in assay [2] (setting [9]).
In the same order, the values of `Nc1nnc(-c2ccc3[nH]cc(-c4cncc(C5CC5)n4)c3c2)o1` [Example 98, 5-(3-(6-cyclopropyl-2-pyrazinyl)-1H-indol-5-yl)-1,3,4-oxadiazol-2-amine] are 4.85 nM, 85.7 nM, 1.59 nM, 721 nM and 4.34 nM.
The like results for `Nc1nnc(-c2ccc3[nH]cc(-c4cccc(F)c4F)c3c2)o1` [Example 78, 5-(3-(2,3-difluorophenyl)-1H-indol-5-yl)-1,3,4-oxadiazol-2-amine] were, in that order, 164 nM, 1110 nM, 54.3 nM, 18700 nM and 103 nM.

For the origin of these results see patent publication US9321756B2, “Azole compounds as PIM inhibitors” (priority 2011, dated 2016).
